Data as given in US9073940B2, “Tricyclic pyrazol amine derivatives” (MERCK SERONO SA, priority 2009, dated 2015).
Where a name gives a salt, the structure may show the parent alone.

Tested on: 4 PI3K isoforms (Human recombinant GST-PI3K)
Experiment: PI3K scintillation proximity assay, best IC50 obtained with the four isoforms (alpha, beta, delta, gamma)
Assay type: biochemical
Settings: best IC50 obtained with the four isoforms of PI3K; read-out: Best potency measured on the 4 PI3K isoforms

Compound	IC50
3-(Morpholin-4-ylcarbonyl)-1-phenyl-4H- imidazo[5,1-c][1,4]benzothiazine 5,5-dioxide [Example 486]	2740 nM
O=C(c1nn(C2CCCN(CCF)C2)c2c1CS(=O)(=O)c1ccccc1-2)N1CCOCC1 (single isomer, unassigned) [Example 221, 1-[1-(2-fluoroethyl)piperidin-3-yl]-3-(morpholin-4-ylcarbonyl)-1,4-dihydrothiochromeno[4,3-c]pyrazole 5,5-dioxide]	320 nM
O=C(c1nn(C2CCCN(CCN3CC[C@H](F)C3)C2)c2c1CS(=O)(=O)c1ccccc1-2)N1CCOCC1 (single isomer, unassigned) [Example 282]	72 nM
O=C(c1nn(C2CCCN(CCN3CC[C@@H](F)C3)C2)c2c1CS(=O)(=O)c1ccccc1-2)N1CCOCC1 (single isomer, unassigned) [Example 283]	34 nM
O=C(c1nn([C@H]2CCCN(CCC3CCOCC3)C2)c2c1CS(=O)(=O)c1ccccc1-2)N1CCOCC1 (single isomer, unassigned) [Example 306, 3-(morpholin-4-ylcarbonyl)-1-{1-[2-(tetrahydro-2H-pyran-4-yl)ethyl]piperidin-3-yl}-1,4-dihydrothiochromeno[4,3-c]pyrazole 5,5-dioxide]	34 nM
O=C(c1nn([C@@H]2CCCN(CCC3CCOCC3)C2)c2c1CS(=O)(=O)c1ccccc1-2)N1CCOCC1 (single isomer, unassigned) [Example 307, 3-(morpholin-4-ylcarbonyl)-1-{1-[2-(tetrahydro-2H-pyran-4-yl)ethyl]piperidin-3-yl}-1,4-dihydrothiochromeno[4,3-c]pyrazole 5,5-dioxide]	2200 nM
O=C(c1nn([C@@H]2CCCN(CCC3CCOCC3)C2)c2c1CS(=O)(=O)c1c(F)cccc1-2)N1CCOCC1 (single isomer, unassigned) [Example 343, 6-fluoro-3-(morpholin-4-ylcarbonyl)-1-{1-[2-(tetrahydro-2H-pyran-4-yl)ethyl]piperidin-3-yl}-1,4-dihydrothiochromeno[4,3-c]pyrazole 5,5-dioxide hydrochloride salt]	1920 nM
O=C(c1nn([C@H]2CCCN(CCC3CCOCC3)C2)c2c1CS(=O)(=O)c1c(F)cccc1-2)N1CCOCC1 (single isomer, unassigned) [Example 344, 6-fluoro-3-(morpholin-4-ylcarbonyl)-1-{1-[2-(tetrahydro-2H-pyran-4-yl)ethyl]piperidin-3-yl}-1,4-dihydrothiochromeno[4,3-c]pyrazole 5,5-dioxide]	6 nM
COCCN1CCC[C@@H](n2nc(C(=O)N3CCOCC3)c3c2-c2ccccc2S(=O)(=O)C3)C1 (single isomer, unassigned) [Example 347, 1-[1-(2-methoxyethyl)piperidin-3-yl]-3-(morpholin-4-ylcarbonyl)-1,4-dihydrothiochromeno[4,3-c]pyrazole 5,5-dioxide]	3550 nM
O=C(c1nn([C@@H]2CCCN(CCN3CCOCC3)C2)c2c1CS(=O)(=O)c1ccccc1-2)N1CCOCC1 (single isomer, unassigned) [Example 348, 3-(morpholin-4-ylcarbonyl)-1-[1-(2-morpholin-4-ylethyl)piperidin-3-yl]-1,4-dihydrothiochromeno[4,3-c]pyrazole 5,5-dioxide]	1280 nM
O=C(c1nn([C@@H]2CCN(C3CCOCC3)C2)c2c1CS(=O)(=O)c1c(F)cccc1-2)N1CCOCC1 (single isomer, unassigned) [Example 353, 6-fluoro-3-(morpholin-4-ylcarbonyl)-1-[1-(tetrahydro-2H-pyran-4-yl)pyrrolidin-3-yl]-1,4-dihydrothiochromeno[4,3-c]pyrazole 5,5-dioxide hydrochloride salt]	2040 nM
O=C(c1nn([C@H]2CCN(CCC3CCOCC3)C2)c2c1CS(=O)(=O)c1c(F)cccc1-2)N1CCOCC1 (single isomer, unassigned) [Example 354, 6-fluoro-3-(morpholin-4-ylcarbonyl)-1-{1-[2-(tetrahydro-2H-pyran-4-yl)ethyl]pyrrolidin-3-yl}-1,4-dihydrothiochromeno[4,3-c]pyrazole 5,5-dioxide hydrochloride salt]	92 nM
O=C(c1nn([C@@H]2CCN(CCC3CCOCC3)C2)c2c1CS(=O)(=O)c1c(F)cccc1-2)N1CCOCC1 (single isomer, unassigned) [Example 356, 6-fluoro-3-(morpholin-4-ylcarbonyl)-1-{1-[2-(tetrahydro-2H-pyran-4-yl)ethyl]pyrrolidin-3-yl}-1,4-dihydrothiochromeno[4,3-c]pyrazole 5,5-dioxide hydrochloride salt]	1690 nM
O=C(c1nn([C@@H]2CCCNC2)c2c1CS(=O)(=O)c1ccccc1-2)N1CCOCC1 (single isomer, unassigned) [Example 358]	3000 nM
O=C(c1nn([C@H]2CCCNC2)c2c1CS(=O)(=O)c1ccccc1-2)N1CCOCC1 (single isomer, unassigned) [Example 359]	1060 nM
O=C(c1nn([C@H]2CCCN(CCN3CC(F)(F)C3)C2)c2c1CS(=O)(=O)c1ccccc1-2)N1CCOCC1 (single isomer, unassigned) [Example 362, 1-{1-[2-(3,3-difluoroazetidin-1-yl)ethyl]piperidin-3-yl}-3-(morpholin-4-ylcarbonyl)-1,4-dihydrothiochromeno[4,3-c]pyrazole 5,5-dioxide]	17 nM
O=C(c1nn([C@H]2CCCN(CCN3CCC(F)CC3)C2)c2c1CS(=O)(=O)c1ccccc1-2)N1CCOCC1 (single isomer, unassigned) [Example 363, 1-{1-[2-(4-fluoropiperidin-1-yl)ethyl]piperidin-3-yl}-3-(morpholin-4-ylcarbonyl)-1,4-dihydrothiochromeno[4,3-c]pyrazole 5,5-dioxide]	25 nM
O=C(c1nn([C@H]2CCCN(CCN3CC[C@@H](F)C3)C2)c2c1CS(=O)(=O)c1ccccc1-2)N1CCOCC1 (single isomer, unassigned) [Example 364, 1-(1-{2-[3-fluoropyrrolidin-1-yl]ethyl}piperidin-3-yl)-3-(morpholin-4-ylcarbonyl)-1,4-dihydrothiochromeno[4,3-c]pyrazole 5,5-dioxide]	14 nM
O=C(c1nn([C@@H]2CCCN(CCF)C2)c2c1CS(=O)(=O)c1ccccc1-2)N1CCOCC1 (single isomer, unassigned) [Example 366]	7970 nM
O=C(c1nn([C@H]2CCCN(CCN3CCC(F)C3)C2)c2c1CS(=O)(=O)c1ccccc1-2)N1CCOCC1 (single isomer, unassigned) [Example 367]	32 nM
COc1ccc2c(c1)S(=O)(=O)Cc1c(C(=O)N3CCOCC3)nn([C@H]3CCCN(CCC4CCOCC4)C3)c1-2 (single isomer, unassigned) [Example 369]	27 nM
CC1(C)CN(CCN2CCC[C@H](n3nc(C(=O)N4CCOCC4)c4c3-c3ccccc3S(=O)(=O)C4)C2)CCO1 (single isomer, unassigned) [Example 370, 1-{1-[2-(2,2-dimethylmorpholin-4-yl)ethyl]piperidin-3-yl}-3-(morpholin-4-ylcarbonyl)-1,4-dihydrothiochromeno[4,3-c]pyrazole 5,5-dioxide]	73 nM
O=C(c1nn([C@@H]2CCCN(CC3CCOCC3)C2)c2c1CS(=O)(=O)c1ncccc1-2)N1CCOCC1 (single isomer, unassigned) [Example 371, 3-(morpholin-4-ylcarbonyl)-1-[1-(tetrahydro-2H-pyran-4-ylmethyl)piperidin-3-yl]-1,4-dihydropyrazolo[3′,4′:4,5]thiopyrano[2,3-b]pyridine 5,5-dioxide]	830 nM
O=C(c1nn([C@H]2CCCN(CCF)C2)c2c1CS(=O)(=O)c1ccccc1-2)N1CCOCC1 (single isomer, unassigned) [Example 372, 1-[1-(2-fluoroethyl)piperidin-3-yl]-3-(morpholin-4-ylcarbonyl)-1,4-dihydrothiochromeno[4,3-c]pyrazole 5,5-dioxide]	200 nM
COc1ccc2c(c1)S(=O)(=O)Cc1c(C(=O)N3CCOCC3)nn([C@@H]3CCCN(CCC4CCOCC4)C3)c1-2 (single isomer, unassigned) [Example 373]	10300 nM
O=C(c1nn([C@H]2CCCN(CC3CCOCC3)C2)c2c1CS(=O)(=O)c1ncccc1-2)N1CCOCC1 (single isomer, unassigned) [Example 376, 3-(morpholin-4-ylcarbonyl)-1-[1-(tetrahydro-2H-pyran-4-ylmethyl)piperidin-3-yl]1,4-dihydropyrazolo[3′,4′:4,5]thiopyrano[2,3-b]pyridine 5,5-dioxide]	13 nM
CC1COCCN1CCN1CCC[C@H](n2nc(C(=O)N3CCOCC3)c3c2-c2ccccc2S(=O)(=O)C3)C1 (single isomer, unassigned) [Example 377, 1-{1-[2-(3-methylmorpholin-4-yl)ethyl]piperidin-3-yl}-3-(morpholin-4-ylcarbonyl)-1,4-dihydrothiochromeno[4,3-c]pyrazole 5,5-dioxide]	101 nM
C[C@@H]1CN(CCN2CCC[C@H](n3nc(C(=O)N4CCOCC4)c4c3-c3ccccc3S(=O)(=O)C4)C2)C[C@H](C)O1 (single isomer, unassigned) [Example 378]	65 nM
O=C(c1nn([C@@H]2CCCN(C3CCCOC3)C2)c2c1CS(=O)(=O)c1ncccc1-2)N1CCOCC1 (single isomer, unassigned) [Example 379, 3-(morpholin-4-ylcarbonyl)-1-[1-(tetrahydro-2H-pyran-3-yl)piperidin-3-yl]-1,4-dihydropyrazolo[3′,4′:4,5]thiopyrano[2,3-b]pyridine 5,5-dioxide]	2930 nM
O=C(c1nn([C@H]2CCCN(C3CCCOC3)C2)c2c1CS(=O)(=O)c1ncccc1-2)N1CCOCC1 (single isomer, unassigned) [Example 381, 3-(morpholin-4-ylcarbonyl)-1-[1-(tetrahydro-2H-pyran-3-yl)piperidin-3-yl]-1,4-dihydropyrazolo[3′,4′:4,5]thiopyrano[2,3-b]pyridine 5,5-dioxide]	36 nM
